Biological target: human D3R (Homo sapiens, UniProt P35462)
Assay: [3H]-spiperone filtration binding assay on membranes from CHO–hDRD3 cells
Settings: for inhibition at 10 µM: read-out: Inhibition Rate at 10 µM
Experimental: CHO-K1 cells expressing human D3R (CHO–hDRD3; HD Euroscreen Fast, Brussels, Belgium) were homogenized in 4× v/w buffer (15 mM Tris, 2 mM MgCl2, 0.3 mM EDTA, 1 mM EGTA, pH = 7.4 at 25 °C) with a Dounce tissue grinder and centrifuged at 40,000× g at 4 °C for 25 min. The supernatant was removed, and the pellet was resuspended in 4× v/w buffer and recentrifuged. […] The preparations were then aliquoted and stored at −70 °C [11].
The aliquoted membranes were thawed and washed once in binding buffer (50 mM Tris HCl, 5 mM MgCl2, 5 mM KCl, 1 mM CaCl2, 120 mM NaCl, and 1mM EDTA). […] The incubations were carried out for 120 min at 25 °C in 250 µL in individual wells of a 96-well deep-well plate. […] Non-specific binding was determined in the presence of 10 mM haloperidol. After incubation, the samples were filtered over UniFilter GF/B^TM using PerkinElmer Harvester and washed with 4 × 1 mL ice-cold binding buffer. The plate was dried at 40 °C for 1 h and 40 µL MicroScint scintillation cocktail (PerkinElmer) was added to each well. […] Specific radioligand binding was defined as the difference between total binding and non-specific binding determined in the presence of excess haloperidol. Inhibition percentage (%) = (total binding counts − test compounds binding counts)/(total binding counts—non-specific binding counts) [11].

Sequence of human D3R (P35462 whole entry): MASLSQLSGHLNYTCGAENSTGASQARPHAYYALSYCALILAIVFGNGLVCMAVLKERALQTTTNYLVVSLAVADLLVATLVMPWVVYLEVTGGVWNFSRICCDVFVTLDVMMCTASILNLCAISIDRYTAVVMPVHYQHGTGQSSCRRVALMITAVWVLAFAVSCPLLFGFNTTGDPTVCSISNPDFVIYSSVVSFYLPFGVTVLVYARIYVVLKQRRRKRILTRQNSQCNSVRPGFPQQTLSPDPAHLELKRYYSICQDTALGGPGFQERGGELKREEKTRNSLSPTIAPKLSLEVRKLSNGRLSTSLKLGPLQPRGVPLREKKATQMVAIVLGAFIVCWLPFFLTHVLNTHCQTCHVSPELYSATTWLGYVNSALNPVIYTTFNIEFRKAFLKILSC

SMILES: Cc1ccc(-c2c3c(=O)n(C)c(=O)n(C)c3c3n2C(C)(C)CO[C@H]3c2ccc(C)cc2O)cc1 [Compound D280-0447]
- IC50: 1250 nM
- inhibition at 10 µM: 99.3%

SMILES: Cc1nc(Nc2ccc(NC(=O)Nc3ccc4c(c3)OCCO4)cc2)cc(NC2CCCCC2)n1 [Compound D638-0102]
- IC50: 1480 nM
- inhibition at 10 µM: 93.6%

SMILES: Cc1ccc(SCc2nc(-c3ccc(C(=O)Nc4ccc5c(c4)OCO5)cc3)oc2C)cc1 [Compound E776-0059]
- IC50: 970 nM
- inhibition at 10 µM: 96.9%

SMILES: Cc1ccc(CNC(=O)c2ccc3c(=O)n(-c4ccc(C)cc4)c(N4CCCC4)nc3c2)cc1 [Compound F072-0905]
- IC50: 1410 nM
- inhibition at 10 µM: 99.5%

SMILES: Cc1oc(-c2ccc(C(=O)NCc3ccccc3)cc2)nc1CN1CCc2ccccc21 [Compound G373-0280]
- Inhibition Rate at 10 µM (10 µM test compound, displacement of [3H]-spiperone): 74.8%

SMILES: Cc1cc(N2CCC(C(=O)N[C@@H]3CCCc4ccccc43)CC2)n2nc(-c3ccccc3)cc2n1 [Compound L227-1012]
- IC50: 1490 nM
- inhibition at 10 µM: 94.8%

Source: PMC9862751, “Identifying Dopamine D3 Receptor Ligands through Virtual Screening and Exploring the Binding Modes of Hit Compounds” (Molecules, 2023)
